Assay results taken from patent US9040717B2, “Pyrazole-amide compounds and pharmaceutical use thereof” (JAPAN TOBACCO INC., priority 2013, dated 2015).

Tests used:
[1] = test system: adipose tissue PDH activity; assay: Ex vivo PDH activation assay, adipose tissue; format: in vivo, Sprague-Dawley rats; settings: non-fasting SD rats, vehicle 31 ± 10, mean ± S.D. (n = 3)
Procedure: (§1) The action of test compound on tissue PDH activity was evaluated. NADH production was detected via p-iodonitrotetrazolium violet (INT)-coupled system to measure PDH activity.
(§2) Normal male Sprague-Dawley rats were randomly allocated to the vehicle group and the test compound groups. The vehicle (0.5% aqueous methylcellulose solution, 5 mL/kg) or the test compound was orally administered to the rats. At 5 or 20 hr after administration, the rats were anesthetized with an intraperitoneal injection of sodium pentobarbital (60 mg/kg), and liver slices and epididymal adipose tissues were collected.
(§3) To the adipose tissues were rapidly added 3 volumes of an ice-cold homogenization buffer, and the mixtures were homogenized using a Polytron homogenizer. The homogenates were centrifuged at 600×g, 4° C. for 10 min to obtain the supernatant. The supernatants were centrifuged at 16,000×g, 4° C. for 10 min to collect the precipitates. The precipitates were washed by resuspension in the homogenization buffer (1 mL) and centrifuged in the same manner. The precipitates were frozen with liquid nitrogen and stored at −80° C. as the adipose tissue mitochondrial fraction.
(§4) The mitochondrial fractions were thawed and suspended with the sample buffer (0.25 mol/L sucrose, 20 mmol/L tris(hydroxymethyl)aminomethane hydrochloride (pH 7.5), 50 mmol/L potassium chloride, and 1 mL/L 4-(1,1,3,3-tetramethylbutyl)phenyl-polyethylene glycol (Triton X-100)). Active PDH activity (PDHa activity) and total PDH activity (PDHt activity) were measured to evaluate the PDH activity. For the measurement of the PDHt activity, equal amounts of the mitochondrial suspension and the activation buffer (0.25 mol/L sucrose, 20 mmol/L tris(hydroxymethyl)aminomethane hydrochloride (pH 7.5), 50 mmol/L potassium chloride, 1 mL/L Triton X-100, 4 mmol/L calcium chloride, 40 mmol/L magnesium chloride, 10 mmol/L sodium dichloroacetate) were mixed, and the mixtures were incubated at 37° C. for 10 min. Forty microliters of the mitochondrial suspensions diluted with a sample buffer were added to a 96-well microplate for activity measurement and blank measurement. Then 180 μL of the reaction mixture (0.056 mmol/L potassium phosphate buffer (pH 7.5), 5.6 mmol/L DL-carnitine, 2.8 mmol/L NAD, 0.22 mmol/L thiamin pyrophosphate, 0.11 mmol/L Coenzyme A, 1.1 mL/L Triton X-100, 1.1 mmol/L magnesium chloride, 1.1 g/L bovine serum albumin, 0.67 mmol/L INT, 7.2 μmol/L phenazine methosulfate, 28 mmol/L sodium oxamate) was added to each well, and then 20 μL of 50 mmol/L sodium pyruvate for activity measurement or water for blank measurement were added. The mixtures were incubated at room temperature under shading. The absorbances at 500-750 nm, which were attributable to reduction of INT, the final electron acceptor, were measured using a microplate reader over time and the changes in the absorbance were calculated. The PDH activity was calculated by subtraction of the change in absorbance of the blank well from that of the activity measurement well. The percentage of the PDHa activity to the PDHt activity was calculated and taken as an index of the PDH activation.

[2] = target: hERG current in hERG-transfected HEK293 cells (Homo sapiens (Human), UniProt Q12809); assay: hERG whole cell patch clamp test; format: cell-based
Procedure: Using human ether-a-go-go related gene (hERG)-transfected HEK293 cells (Cytomyx Limited), an influence on hERG current was examined according to the whole cell patch clamp technique. The hERG-transfected HEK293 cells were passaged using a CO2 incubator (BNA-111, TABAI ESPEC CORP.) under the set conditions of 37° C., 5% CO2, saturated humidity. Culture containers used were Collagen Type I Coated 75 cm^2 flask (4123-010, AGC TECHNO GLASS CO., Ltd.) and Collagen Type I Coated 35 mm culture dish (4000-010, AGC TECHNO GLASS CO., Ltd.). The culture medium used was E-MEM (Eagle Minimum Essential Medium (Earle's Salts, Nikken biomedical laboratory) added with 10% FCS (Fetal calf serum, BioWest, L.L.C.) and 1% MEM Non-Essential Amino Acids Solution (NEAA, Invitrogen Corporation). Geneticin for the selection of hERG gene expressing cells was added thereto to a concentration of 400 μg/mL. As the cells for the measurement, 3×10^4 hERG-transfected HEK293 cells were plated on a 35 mm culture dish 4 to 7 days before measurement of the hERG current. The culture dish produced for the measurement contained the above-mentioned culture medium without geneticin (Invitrogen Corporation).
The highest evaluation concentration of each compound was determined from the highest concentration at which precipitation was not found in the standard extracellular fluid (NaCl: 140 mmol/L, KCl: 2.5 mmol/L, MgCl2:2 mmol/L, CaCl2: 2 mmol/L, HEPES: 10 mmol/L, glucose: 10 mmol/L (adjusted to pH 7.4 with Tris-base)). As the application method, each solution to be applied was ejected from a Y-tube having a tip diameter of about 0.25 mm, which was adjacent (about 2 mm) to the cells, and applied to the cells. The ejection rate was about 0.4 mL/min.
The experiment was performed at room temperature under a phase contrast microscope. The 35 mm culture dish plated with the cells was set on a measurement apparatus, and the standard extracellular fluid was continuously applied to the cells from the Y-tube. A glass electrode for the measurement was filled with an intracellular fluid (Potassium Gluconate: 130 mmol/L, KCl: 20 mmol/L, MgCl2: 1 mmol/L, ATP-Mg: 5 mmol/L, EGTA: 3.5 mmol/L, HEPES: 10 mmol/L (adjusted to pH 7.2 with Tris-base)). A conventional whole cell patch clamp method was applied to the cells, and the maintenance electric potential was set to −80 mV. Under a fixed electric potential, the whole cell current was amplified by an amplifier for patch clamp (AXOPATCH-200B, Axon Instruments, Inc.), and the data was loaded into a computer (IMC-P642400, Intermedical Co., Ltd.) using a data acquisition analysis software (pCLAMP 9.2, Axon Instruments, Inc.).
The measurement of the hERG current was performed in the following two steps. In both cases, the hERG current was initiated by giving a command potential (maintenance electric potential −80 mV, prepulse +20 mV, 1.5 sec, test-pulse −50 mV, 1.5 sec).
Step (1): The above-mentioned command potential was given at 0.1 Hz for 2 min.
Step (2): The above-mentioned command potential was subjected to P/3 subtraction of pCLAMP 9.2 to remove leak current. This was repeated three times and an average thereof was taken as hERG current.
Subsequent to step (1), Step (2) was performed (about 3 min), and the maximum tail current obtained by applying a test-pulse to the hERG current obtained by the method of step (2) was taken as hERG current value. Hereafter, the operations of (1) and (2) were alternately repeated until completion of the experiment and the hERG current value was measured.
Stable hERG current value was recorded three times (about 10 min), and the standard extracellular fluid was instantaneously exchanged with each application fluid. The hERG current value was measured three times (about 10 min) in the same manner during perfusion of the application fluid, and the current value obtained by the 3rd measurement was taken as hERG current value after perfusion of the application fluid. […]

liver PDH activity = assay: Ex vivo PDH activation assay, liver; format: in vivo, Sprague-Dawley rats; settings: non-fasting SD rats, vehicle 13 ± 3, mean ± S.D. (n = 3)
Procedure: as §1, §2
as §3, with “liver slices” for “adipose tissues”, “9” for “3”, “of” for “of an”, “buffer (0.25 mol/L sucrose, 5 mmol/L tris(hydroxymethyl)aminomethane hydrochloride (pH 7.5), 2 mmol/L EDTA),” for “buffer,”, “supernatants (1 mL)” for “supernatants”, “liver” for “adipose tissue”
as §4

[3] = Table 2, 5 hr after oral 3 mg/kg
[4] = Table 2, 20 hr after oral 3 mg/kg

Sequence of hERG current in hERG-transfected HEK293 cells (Q12809 whole entry): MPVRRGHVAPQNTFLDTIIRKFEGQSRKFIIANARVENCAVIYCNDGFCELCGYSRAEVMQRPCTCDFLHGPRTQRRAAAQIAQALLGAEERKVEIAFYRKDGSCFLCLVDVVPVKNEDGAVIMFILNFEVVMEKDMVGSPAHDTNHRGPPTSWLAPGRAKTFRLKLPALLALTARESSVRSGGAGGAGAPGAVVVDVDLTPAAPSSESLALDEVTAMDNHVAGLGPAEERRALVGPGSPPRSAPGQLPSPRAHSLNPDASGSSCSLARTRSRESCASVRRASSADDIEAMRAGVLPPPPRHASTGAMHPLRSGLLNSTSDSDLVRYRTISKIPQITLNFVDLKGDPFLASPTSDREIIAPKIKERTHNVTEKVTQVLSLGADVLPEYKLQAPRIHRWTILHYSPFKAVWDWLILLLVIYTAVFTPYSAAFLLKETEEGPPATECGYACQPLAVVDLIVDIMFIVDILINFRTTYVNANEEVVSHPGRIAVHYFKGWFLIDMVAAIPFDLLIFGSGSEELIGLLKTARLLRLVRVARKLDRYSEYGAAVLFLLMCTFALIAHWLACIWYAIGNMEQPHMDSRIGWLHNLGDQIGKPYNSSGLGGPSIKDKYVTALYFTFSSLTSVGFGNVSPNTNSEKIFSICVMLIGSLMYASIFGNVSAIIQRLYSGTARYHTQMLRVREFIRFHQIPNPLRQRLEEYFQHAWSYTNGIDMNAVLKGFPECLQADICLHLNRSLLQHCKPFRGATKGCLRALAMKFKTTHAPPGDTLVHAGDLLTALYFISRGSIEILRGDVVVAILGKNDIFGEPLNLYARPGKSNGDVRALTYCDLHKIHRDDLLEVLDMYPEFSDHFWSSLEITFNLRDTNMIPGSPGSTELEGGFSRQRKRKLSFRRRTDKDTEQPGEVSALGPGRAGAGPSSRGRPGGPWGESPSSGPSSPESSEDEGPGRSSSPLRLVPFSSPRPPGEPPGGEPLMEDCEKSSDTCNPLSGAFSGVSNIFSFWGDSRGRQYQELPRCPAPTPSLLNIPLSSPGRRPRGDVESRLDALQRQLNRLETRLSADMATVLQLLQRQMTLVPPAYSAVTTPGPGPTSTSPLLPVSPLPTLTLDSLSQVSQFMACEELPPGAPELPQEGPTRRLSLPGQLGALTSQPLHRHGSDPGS

Row | SMILES | PDHa activity (% of PDHt activity) [1, 3] | PDHa activity (% of PDHt activity) [1, 4] | hERG current Inhibition rate (%) ([2]; 3 μmol/L) | hERG current Inhibition rate (%) ([2]; 30 μmol/L) | PDHa activity (% of PDHt activity) (liver PDH activity; [3]) | PDHa activity (% of PDHt activity) (liver PDH activity; [4])
1 | CC(C)(O)COc1cc(-c2cnn(CCO)c2)c2c(c1)[C@@](O)(C(F)(F)F)c1ccccc1-2 [Compound (C), (9R)-4-[1-(2-Hydroxyethyl)-1H-pyrazol-4-yl]-2-(2-hydroxy-2-methylpropoxy)-9-(trifluoromethyl)-9H-fluoren-9-ol] | 53 ± 4 % of PDHt activity | 28 ± 7 % of PDHt activity | 11.5 | 69.0 | 44 ± 5 % of PDHt activity | 13 ± 3 % of PDHt activity
2 | CC(C)(C(N)=O)n1cc(-c2cc(F)cc3c2-c2ccccc2[C@]3(O)C(F)(F)F)cn1 [Compound (D), 2-{4-[(9R)-2-Fluoro-9-hydroxy-9-(trifluoromethyl)-9H-fluoren-4-yl]-1H-pyrazol-1-yl}-2-methylpropanamide] | 43 ± 7 % of PDHt activity | 24 ± 3 % of PDHt activity | 9.4 | 67.5 | 41 ± 15 % of PDHt activity | 20 ± 1 % of PDHt activity
